Assay results reported in US20250304585A1, “SULFAMATE BASED COVALENT LIGAND-DIRECTED RELEASE (COLDR) COMPOUNDS” (priority 2022, published 2025).
“And” between values parts separate entries of the source, which are not always exact repeats. Identical values can stand only once. Like-named read-outs stand apart in the source and are kept apart here.

Columns and labels:
[1] = GSH reactivity (consumption) assay; format: physicochemical; settings: for covalent bond formation with GSH: assay conditions or up to 37° C. for 24 h; for GSH reactivity relative to chloroacetamide (1a): model compounds
BTK [2] = target: T1, BTK (Homo sapiens (Human), UniProt Q06187); test: In vitro kinase activity assay; format: biochemical
T1 sequence (Q06187 whole entry, looked up): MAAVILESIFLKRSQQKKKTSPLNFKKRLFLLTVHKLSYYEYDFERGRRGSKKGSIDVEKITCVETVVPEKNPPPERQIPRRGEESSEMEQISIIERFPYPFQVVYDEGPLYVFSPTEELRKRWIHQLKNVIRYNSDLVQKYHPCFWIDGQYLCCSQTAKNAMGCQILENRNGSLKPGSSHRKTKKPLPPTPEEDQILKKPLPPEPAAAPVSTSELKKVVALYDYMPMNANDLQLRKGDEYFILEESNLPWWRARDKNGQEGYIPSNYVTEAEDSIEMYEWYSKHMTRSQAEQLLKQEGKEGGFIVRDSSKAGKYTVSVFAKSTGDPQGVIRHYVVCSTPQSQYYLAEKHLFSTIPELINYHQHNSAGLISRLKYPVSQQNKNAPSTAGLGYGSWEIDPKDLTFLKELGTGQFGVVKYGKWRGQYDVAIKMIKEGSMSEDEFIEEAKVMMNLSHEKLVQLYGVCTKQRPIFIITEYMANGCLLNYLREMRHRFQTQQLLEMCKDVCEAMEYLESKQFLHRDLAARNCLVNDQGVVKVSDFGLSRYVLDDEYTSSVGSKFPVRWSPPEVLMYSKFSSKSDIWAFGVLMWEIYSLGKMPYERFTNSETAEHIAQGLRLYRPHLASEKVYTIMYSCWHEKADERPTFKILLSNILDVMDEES

BTK [3] = target: T1, BTK; test: BTK activity (autophosphorylation) in Mino cells; format: cell-based; settings: anti-IgM activation, read-out: IC50 of BTK autophosphorylation inhibition
Text: The cell pellets were subjected to immunoblotting and performed Western blots for p-BTK, BTK and β-actin.
Cell pellets were washed with ice-cold PBS and lysed using RIPA-buffer (Sigma, R0278). […] EZ-ECL Kit (Biological Industries, 20-500-1000) was used to detect HRP-activity.

BTK kinase domain = BTK kinase domain (Homo sapiens (Human), UniProt Q06187); test: In-vitro labeling of recombinant BTK, intact protein LC/MS; format: binding; settings: 2 μM BTK, 2 μM compound
BTK kinase domain, sequence (Q06187 402-655): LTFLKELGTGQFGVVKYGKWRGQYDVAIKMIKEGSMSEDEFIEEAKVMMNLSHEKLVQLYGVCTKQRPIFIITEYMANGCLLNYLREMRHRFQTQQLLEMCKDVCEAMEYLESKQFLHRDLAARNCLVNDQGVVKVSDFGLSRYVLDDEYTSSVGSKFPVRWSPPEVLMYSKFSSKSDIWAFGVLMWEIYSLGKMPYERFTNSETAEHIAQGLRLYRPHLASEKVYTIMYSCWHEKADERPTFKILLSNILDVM

EGFR = EGFR (Homo sapiens (Human), UniProt P00533); test: In vitro kinase activity assay with EGFR; format: biochemical; settings: for EGFR/BTK: ratio of off-target/BTK IC50
EGFR, sequence (P00533 25-1210): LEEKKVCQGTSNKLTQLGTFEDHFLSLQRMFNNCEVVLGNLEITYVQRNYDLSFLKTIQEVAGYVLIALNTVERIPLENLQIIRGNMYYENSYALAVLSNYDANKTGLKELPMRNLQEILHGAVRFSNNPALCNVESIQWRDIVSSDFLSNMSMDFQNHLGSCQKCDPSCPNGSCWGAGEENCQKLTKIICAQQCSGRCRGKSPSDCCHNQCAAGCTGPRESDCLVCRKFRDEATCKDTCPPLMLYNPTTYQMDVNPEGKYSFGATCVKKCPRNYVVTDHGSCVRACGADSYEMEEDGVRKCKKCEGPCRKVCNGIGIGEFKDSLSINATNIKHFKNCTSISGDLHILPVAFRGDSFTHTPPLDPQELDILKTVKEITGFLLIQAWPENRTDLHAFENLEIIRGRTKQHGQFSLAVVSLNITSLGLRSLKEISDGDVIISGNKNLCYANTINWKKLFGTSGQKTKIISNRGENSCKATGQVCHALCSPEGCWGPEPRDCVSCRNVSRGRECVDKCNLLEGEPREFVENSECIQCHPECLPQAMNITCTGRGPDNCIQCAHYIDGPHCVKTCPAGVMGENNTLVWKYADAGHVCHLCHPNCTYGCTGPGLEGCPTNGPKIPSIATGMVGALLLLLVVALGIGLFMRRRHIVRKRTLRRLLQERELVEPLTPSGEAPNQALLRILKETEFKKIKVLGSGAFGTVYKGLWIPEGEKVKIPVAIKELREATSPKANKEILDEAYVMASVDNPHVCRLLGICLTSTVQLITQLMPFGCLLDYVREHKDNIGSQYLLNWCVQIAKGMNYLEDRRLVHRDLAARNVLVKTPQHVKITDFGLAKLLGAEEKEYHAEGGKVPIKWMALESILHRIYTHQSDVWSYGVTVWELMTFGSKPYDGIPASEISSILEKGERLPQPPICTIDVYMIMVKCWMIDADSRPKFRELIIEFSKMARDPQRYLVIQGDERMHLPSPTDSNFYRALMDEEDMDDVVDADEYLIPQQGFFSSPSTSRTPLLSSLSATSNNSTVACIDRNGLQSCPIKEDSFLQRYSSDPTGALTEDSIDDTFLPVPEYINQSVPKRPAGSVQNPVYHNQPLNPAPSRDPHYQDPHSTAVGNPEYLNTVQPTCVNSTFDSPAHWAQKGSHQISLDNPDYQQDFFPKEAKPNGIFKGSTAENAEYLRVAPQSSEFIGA

Mino cells [4] = test: Competitive pull-down proteomics; format: cell-based; settings: 1 μM, fold-enrichment>4 and p-value<0.05
BTK C481S mutant = BTK C481S mutant (Homo sapiens (Human), UniProt Q06187, C481S); test: In vitro kinase activity assay with BTK C481S mutant; format: biochemical; settings: for C481S/BTK: ratio of off-target/BTK IC50
BTK C481S mutant, sequence (Q06187 whole entry C481S, looked up): as the sequence (Q06187 whole entry, looked up) above, with C481S counted along it

Mino cells [5] = test: Proteomic reactivity of model alkyne probes; format: cell-based; settings: compared with 2b
[6] = tested on: TCL1 adoptive transfer mouse model for CLL; test: TCL1 adoptive transfer mouse model for CLL; format: in vivo; settings: after two weeks of treatment
[7] = Metabolic stability with human liver microsomes; settings: five-minute incubation
BTK [8] = target: BTK (Mus musculus (Mouse), UniProt P35991); test: BTK engagement in treated mice spleens; format: in vivo
BTK (Mus musculus (Mouse), UniProt P35991), sequence (P35991 whole entry): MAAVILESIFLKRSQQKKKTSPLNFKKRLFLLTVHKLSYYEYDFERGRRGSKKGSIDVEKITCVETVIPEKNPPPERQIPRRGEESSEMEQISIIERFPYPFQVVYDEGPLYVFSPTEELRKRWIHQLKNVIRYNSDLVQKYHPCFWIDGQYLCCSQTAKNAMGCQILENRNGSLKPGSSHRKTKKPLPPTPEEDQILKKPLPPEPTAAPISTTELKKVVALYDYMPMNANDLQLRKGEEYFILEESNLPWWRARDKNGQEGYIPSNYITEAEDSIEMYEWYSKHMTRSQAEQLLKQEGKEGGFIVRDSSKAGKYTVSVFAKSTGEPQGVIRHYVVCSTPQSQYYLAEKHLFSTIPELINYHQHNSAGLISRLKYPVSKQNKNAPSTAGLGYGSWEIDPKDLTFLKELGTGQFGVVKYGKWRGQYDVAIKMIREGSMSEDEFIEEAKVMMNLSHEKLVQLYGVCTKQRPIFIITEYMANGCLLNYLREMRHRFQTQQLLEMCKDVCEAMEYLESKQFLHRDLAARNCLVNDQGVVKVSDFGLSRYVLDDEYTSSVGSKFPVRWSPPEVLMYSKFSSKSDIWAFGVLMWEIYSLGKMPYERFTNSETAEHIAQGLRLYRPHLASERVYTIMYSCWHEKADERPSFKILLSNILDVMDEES
Protocol: Lysates were diluted to 2 mg/ml, […] per sample, and incubated for 1 h in room temperature with […] probe 4 to label BTK. Lysates were then clicked to TAMRA-azide and imaged using ChemiDoc MP (546 nm) as described in the In-gel fluorescence protocol.

[9] = 0.5 nM BTK, 5 μM ATP, read-out: BTK (IC50 μM)
[10] = BTK C481S mutant, read-out: C481S (IC50 μM)

With `O=C(CS(=O)(=O)c1ccccc1)NCc1ccccc1` [Compound 1j, N-benzyl-2-(phenylsulfonyl)acetamide] the “covalent bond formation with GSH” value [1] was “did not form a covalent bond with GSH”.
For `CS(=O)(=O)OCC(=O)N1CCC[C@@H](n2nc(-c3ccc(Oc4ccccc4)cc3)c3c(N)ncnc32)C1` [Compound 3b, (R)-2-(3-(4-amino-3-(4-phenoxyphenyl)-1H-pyrazolo[3,4-d]pyrimidin-1-yl)piperidin-1-yl)-2-oxoethyl methanesulfonate], the IC50 (BTK [2]; [9]) was 0.0464 µM and 0.046 µM and the IC50 (BTK [3]) was 6 nM.
With `Nc1ncnc2c1c(-c1ccc(Oc3ccccc3)cc1)nn2[C@@H]1CCCN(C(=O)CS(=O)(=O)c2ccccc2)C1` [Compound 3g, (R)-1-(3-(4-amino-3-(4-phenoxyphenyl)-1H-pyrazolo[3,4-d]pyrimidin-1-yl)piperidin-1-yl)-2-(phenylsulfonyl)ethan-1-one] the “covalent labeling of BTK (LC/MS)” value (BTK kinase domain) was “failed to react covalently with BTK”.
In the case of `CS(=O)(=O)CC(=O)NCc1ccccc1` [Compound 1i, N-benzyl-2-(methylsulfonyl)acetamide], the “covalent bond formation with GSH” value [1] is reported as “did not form a covalent bond with GSH”.
With `CS(=O)(=O)CC(=O)N1CCC[C@@H](n2nc(-c3ccc(Oc4ccccc4)cc3)c3c(N)ncnc32)C1` [Compound 3f, (R)-1-(3-(4-amino-3-(4-phenoxyphenyl)-1H-pyrazolo[3,4-d]pyrimidin-1-yl)piperidin-1-yl)-2-(methylsulfonyl)ethan-1-one] the “covalent labeling of BTK (LC/MS)” value (BTK kinase domain) was “failed to react covalently with BTK”.
For `C#CCOS(=O)(=O)N1CCC[C@@H](n2nc(-c3ccc(Oc4ccccc4)cc3)c3c(N)ncnc32)C1` [Compound 3j, prop-2-yn-1-yl (R)-3-(4-amino-3-(4-phenoxyphenyl)-1H-pyrazolo[3,4-d]pyrimidin-1-yl)piperidine-1-sulfonate], the “reaction with GSH” value ([1]; same conditions as Ibrutinib) was “did not undergo any reaction with GSH”.
For `Nc1ncnc2c1c(-c1ccc(Oc3ccccc3)cc1)nn2[C@@H]1CCCN(C(=O)COS(=O)(=O)NCc2ccccc2)C1` [Compound 3d, (R)-2-(3-(4-amino-3-(4-phenoxyphenyl)-1H-pyrazolo[3,4-d]pyrimidin-1-yl)piperidin-1-yl)-2-oxoethyl benzylsulfamate], the IC50 (BTK [2]; [9]) was 0.0242 µM and 0.024 µM, the IC50 (BTK [2]; read-out: IC50 against BTK) was ~0.01 µM and the IC50 (EGFR) was 0.533 µM. For the same compound, the EGFR/BTK (EGFR) was 22.0, the “number of off-targets (competitive pull-down)” value (Mino cells [4]) was 20 and the “fold potency lost against the C481S mutant” value (BTK C481S mutant) was 30-85 fold. The IC50 (BTK C481S mutant; [10]) was 1.28 µM and the C481S/BTK (BTK C481S mutant) was 52.8.
For `Nc1ncnc2c1c(-c1ccc(Oc3ccccc3)cc1)nn2[C@@H]1CCCN(C(=O)COS(=O)(=O)Nc2ccccc2)C1` [Compound 3e, (R)-2-(3-(4-amino-3-(4-phenoxyphenyl)-1H-pyrazolo[3,4-d]pyrimidin-1-yl)piperidin-1-yl)-2-oxoethyl phenylsulfamate], the “fold weaker IC50 than Ibrutinib” value (BTK [2]) was 10 fold, the IC50 (BTK [2]; [9]) was 0.0949 µM and 0.095 µM and the IC50 (BTK [2]; read-out: IC50 against BTK) was 0.1 µM. For the same compound, the IC50 (EGFR) was 1.96 µM, the EGFR/BTK (EGFR) was 20.6 and the IC50 (BTK C481S mutant; [10]) was 0.275 µM. It also gave a C481S/BTK (BTK C481S mutant) of 2.9.
With `O=C(COS(=O)(=O)NCc1ccccc1)NCc1ccccc1` [Compound 1e, 2-(benzylamino)-2-oxoethyl benzylsulfamate] the “GSH reactivity relative to chloroacetamide (1a)” value [1] was “an order of magnitude less reactivity”.
For `C#Cc1ccc(NC(=O)COS(=O)(=O)NCc2ccccc2)cc1` [Compound 2a, 2-((4-ethynylphenyl)amino)-2-oxoethyl benzylsulfamate], the “proteomic reactivity (proteins enriched)” value (Mino cells [5]) was “enriching more proteins”.
For `CNS(=O)(=O)OCC(=O)N1CCC[C@@H](n2nc(-c3ccc(Oc4ccccc4)cc3)c3c(N)ncnc32)C1` [Compound 3c, (R)-2-(3-(4-amino-3-(4-phenoxyphenyl)-1H-pyrazolo[3,4-d]pyrimidin-1-yl)piperidin-1-yl)-2-oxoethyl methylsulfamate], the IC50 (BTK [2]; [9]) was 0.00864 µM and 0.0086 µM, the IC50 (BTK [2]; read-out: IC50 against BTK) was ~0.01 µM and the IC50 (BTK [3]) was 3.6 nM. The spleen size [6] was “visually smaller”, the IC50 (EGFR) was 0.241 µM and the EGFR/BTK (EGFR) was 27.9. The “remained intact after incubation with human liver microsomes” value [7] was “over 30%”, the “BTK engagement in vivo (ibrutinib-alkyne probe labeling of spleen lysate)” value (BTK [8]) was “do not show probe labeling” and the “number of off-targets (competitive pull-down)” value (Mino cells [4]) was 6. The IC50 (BTK C481S mutant) was 0.74 µM, the “fold potency lost against the C481S mutant” value (BTK C481S mutant) was 30-85 fold and the C481S/BTK (BTK C481S mutant) was 85.6.
For `C#Cc1ccc(NC(=O)CCl)cc1` [Compound 2c, 2-chloro-N-(4-ethynylphenyl)acetamide], the “proteomic reactivity (proteins enriched)” value (Mino cells [5]) was “enriching more proteins”.
With `CNS(=O)(=O)OCC(=O)NCc1ccccc1` [Compound 1d, 2-(benzylamino)-2-oxoethyl methylsulfamate] the “GSH reactivity relative to chloroacetamide (1a)” value [1] was “an order of magnitude less reactivity”.
